One assay has as its system IL-1β production in PMA-differentiated THP-1 cells. As to the kind of experiment: IL-1β production in PMA-differentiated THP-1 cells stimulated with gramicidin (hTHP-1 assay, 2% fetal bovine serum; Procedures 1-3). In kind it is cell-based, human. To be noted: Homo sapiens, THP-1, Table B3; hTHP-1 assay containing 2% fetal bovine serum, gramicidin stimulation, IL-1β readout; read-out: hTHP-1 IC50. Summed up:
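IL-1β released into supernatants was read by HTRF after 2 h gramicidin (5 μM) challenge. Before challenge, compounds (3-fold dilutions, top 100 μM, 0.37% DMSO) were given 1 h on THP-1 cells differentiated with PMA (20 ng/ml, 16-18 h) and held in 2% FBS medium.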
With `CNC(c1ccc(S(N)(=O)=NC(=O)Nc2c3c(cc4c2CCC4)CCC3)s1)C1CC1` (centres unmarked) [Example 723, 5-(cyclopropyl(methylamino)methyl)-N′-((1,2,3,5,6,7-hexahydro-s-indacen-4-yl)carbamoyl)thiophene-2-sulfonimidamide], the IC50 was in the range of 40 to 200 nM. On the same count and under the same terms, next, `NS(=O)(=NC(=O)Nc1c2c(cc3c1CCC3)CCC2)c1cc2c(s1)CCNC2` (centres unmarked) [Example 724, N′-((1,2,3,5,6,7-hexahydro-s-indacen-4-yl)carbamoyl)-4,5,6,7-tetrahydrothieno[3,2-c]pyridine-2-sulfonimidamide]: 40 to 200 nM; `NS(=O)(=NC(=O)Nc1c2c(cc3c1CCC3)CCC2)c1sc(CNC2CCC2)cc1F` (centres unmarked) [Example 726, 5-((Cyclobutylamino)methyl)-3-fluoro-N′-((1,2,3,5,6,7-hexahydro-s-indacen-4-yl)carbamoyl)thiophene-2-sulfonimidamide]: 200 to 1000 nM. Still for that read-out and setting: the same measure for `CN(Cc1ccc(S(N)(=O)=NC(=O)Nc2c3c(cc4c2CC4)CCC3)c(F)c1)C1CCC1` (centres unmarked) [Example 727, 4-((cyclobutyl(methyl)amino)methyl)-2-fluoro-N′-((2,4,5,6-tetrahydro-1H-cyclobuta[f]inden-3-yl)carbamoyl)benzenesulfonimidamide]: 1000 to 5000 nM; for `NS(=O)(=NC(=O)Nc1c2c(cc3c1CCC3)CCC2)c1ccc(-c2ccccc2CO)s1` (centres unmarked) [Example 728, N′-((1,2,3,5,6,7-hexahydro-s-indacen-4-yl)carbamoyl)-5-(2-(hydroxymethyl)phenyl)thiophene-2-sulfonimidamide]: 200 to 1000 nM; for `NS(=O)(=NC(=O)Nc1c2c(cc3c1CCC3)CCC2)c1ccc(-c2ccccc2O)s1` (centres unmarked) [Example 729, N′-((1,2,3,5,6,7-hexahydro-s-indacen-4-yl)carbamoyl)-5-(2-hydroxyphenyl)thiophene-2-sulfonimidamide]: 1000 to 5000 nM. As for `NS(=O)(=NC(=O)Nc1c2c(cc3c1CCC3)CCC2)c1ccc([C@@H]2CCCN2)s1` (stereo partly drawn) [Example 730, N′-((1,2,3,5,6,7-hexahydro-s-indacen-4-yl)carbamoyl)-5-((S)-pyrrolidin-2-yl)thiophene-2-sulfonimidamide], the IC50 lay in the range of 200 to 1000 nM.

Consider `NS(=O)(=NC(=O)Nc1c2c(cc3c1CCC3)CCC2)c1ccc([C@H]2CCCN2)s1` (stereo partly drawn) [Example 731, N′-((1,2,3,5,6,7-hexahydro-s-indacen-4-yl)carbamoyl)-5-((R)-pyrrolidin-2-yl)thiophene-2-sulfonimidamide], for which the IC50 was in the range of 200 to 1000 nM.

On to `NS(=O)(=NC(=O)Nc1c2c(cc3c1CC3)CCC2)c1sc2c(c1F)CNCC2` (centres unmarked) [Example 732, 3-Fluoro-N′-((2,4,5,6-tetrahydro-1H-cyclobuta[f]inden-3-yl)carbamoyl)-4,5,6,7-tetrahydrothieno[3,2-c]pyridine-2-sulfonimidamide], for which the IC50 was 8 to 40 nM. On the same count and under the same terms, the same measure for `NS(=O)(=NC(=O)Nc1c2c(cc3c1CCC3)CCC2)c1sc(C(O)(CO)CO)nc1CO` (centres unmarked) [Example 733, N′-((1,2,3,5,6,7-hexahydro-s-indacen-4-yl)carbamoyl)-4-(hydroxymethyl)-2-(1,2,3-trihydroxypropan-2-yl)thiazole-5-sulfonimidamide]: 40 to 200 nM; for `CN(C)Cc1ccc(S(N)(=O)=NC(=O)Nc2c3c(cc4c2CCC4)CCC3)s1` (centres unmarked) [Example 735, 5-((Dimethylamino)methyl)-N-((1,2,3,5,6,7-hexahydro-s-indacen-4-yl)carbamoyl)thiophene-2-sulfonimidamide]: 1000 to 5000 nM; for `CCn1ccc(S(N)(=O)=NC(=O)Nc2c3c(cc4c2CCC4)CCC3)n1` (centres unmarked) [Example 736, 1-Ethyl-N′-((1,2,3,5,6,7-hexahydro-s-indacen-4-yl)carbamoyl)-1H-pyrazole-3-sulfonimidamide]: 200 to 1000 nM. On the same count and under the same terms, next, `CCn1ccc(S(N)(=O)=NC(=O)Nc2c3c(cc4c2CC4)CCC3)n1` (centres unmarked) [Example 737, 1-Ethyl-N′-((2,4,5,6-tetrahydro-1H-cyclobuta[f]inden-3-yl)carbamoyl)-1H-pyrazole-3-sulfonimidamide]: 200 to 1000 nM; `CC(C)(O)c1nc(CO)c(S(N)(=O)=NC(=O)Nc2c3c(cc4c2C(=O)CC4)CCC3)s1` (centres unmarked) [Example 738, 4-(Hydroxymethyl)-2-(2-hydroxypropan-2-yl)-N-((3-oxo-1,2,3,5,6,7-hexahydro-s-indacen-4-yl)carbamoyl)thiazole-5-sulfonimidamide]: 1000 to 5000 nM. On the same count and under the same terms, next, `CC(C)n1nc(S(N)(=O)=NC(=O)Nc2c3c(cc4c2C(=O)CC4)CCC3)cc1C(C)(C)O` (centres unmarked) [Example 740, 5-(2-Hydroxypropan-2-yl)-1-isopropyl-N′-((3-oxo-1,2,3,5,6,7-hexahydro-s-indacen-4-yl)carbamoyl)-1H-pyrazole-3-sulfonimidamide]: 200 to 1000 nM; `C[C@](O)(CO)c1ncc(S(N)(=O)=NC(=O)Nc2c3c(cc4c2CC4)CCC3)s1` (stereo partly drawn) [Example 741, 2-((S)-1,2-dihydroxypropan-2-yl)-N′-((2,4,5,6-tetrahydro-1H-cyclobuta[f]inden-3-yl)carbamoyl)thiazole-5-sulfonimidamide]: 8 to 40 nM; `C[C@@](O)(CO)c1ncc(S(N)(=O)=NC(=O)Nc2c3c(cc4c2CC4)CCC3)s1` (stereo partly drawn) [Example 742, 2-((R)-1,2-dihydroxypropan-2-yl)-N′-((2,4,5,6-tetrahydro-1H-cyclobuta[f]inden-3-yl)carbamoyl)thiazole-5-sulfonimidamide]: 8 to 40 nM. Turning to `C[C@@](O)(CO)c1ncc(S(N)(=O)=NC(=O)Nc2c3c(cc4c2C(=O)CC4)CCC3)s1` (stereo partly drawn) [Example 743, 2-((R)-1,2-dihydroxypropan-2-yl)-N′-((3-oxo-1,2,3,5,6,7-hexahydro-s-indacen-4-yl)carbamoyl)thiazole-5-sulfonimidamide], the IC50 fell in the range of 200 to 1000 nM. On the same count and under the same terms, the same measure for `C[C@](O)(CO)c1ncc(S(N)(=O)=NC(=O)Nc2c3c(cc4c2C(=O)CC4)CCC3)s1` (stereo partly drawn) [Example 744, 2-((S)-1,2-dihydroxypropan-2-yl)-N′-((3-oxo-1,2,3,5,6,7-hexahydro-s-indacen-4-yl)carbamoyl)thiazole-5-sulfonimidamide]: 40 to 200 nM; for `C[C@](O)(COCCO)c1ccc([S@@](N)(=O)=NC(=O)Nc2c3c(cc4c2CCC4)CCC3)s1` [Example 748, (S)-N′-((1,2,3,5,6,7-hexahydro-s-indacen-4-yl)carbamoyl)-5-((S)-2-hydroxy-1-(2-hydroxyethoxy)propan-2-yl)thiophene-2-sulfonimidamide]: 40 to 200 nM. On the same count and under the same terms, the same measure for `C[C@](O)(COCCO)c1ccc([S@](N)(=O)=NC(=O)Nc2c3c(cc4c2CCC4)CCC3)s1` [Example 749, (R)-N′-((1,2,3,5,6,7-hexahydro-s-indacen-4-yl)carbamoyl)-5-((S)-2-hydroxy-1-(2-hydroxyethoxy)propan-2-yl)thiophene-2-sulfonimidamide]: 200 to 1000 nM; for `C[C@](O)(COCCOCCOCCOCCO)c1ncc(S(N)(=O)=NC(=O)Nc2c3c(cc4c2CCC4)CCC3)s1` (stereo partly drawn) [Example 750, 2-((S)-1,14-dihydroxy-3,6,9,12-tetraoxapentadecan-14-yl)-N′-((1,2,3,5,6,7-hexahydro-s-indacen-4-yl)carbamoyl)thiazole-5-sulfonimidamide]: 5000 to 30000 nM. Still for that read-out and setting: the same measure for `NS(=O)(=NC(=O)Nc1c2c(cc3c1CCC3)CCC2)c1cnc(C(O)(COCCO)COCCO)s1` (centres unmarked) [Example 751, N′-((1,2,3,5,6,7-hexahydro-s-indacen-4-yl)carbamoyl)-2-(2-hydroxy-1,3-bis(2-hydroxyethoxy)propan-2-yl)thiazole-5-sulfonimidamide]: 1000 to 5000 nM. Consider `CN(C)C1CCc2cc(S(N)(=O)=NC(=O)Nc3c4c(cc5c3CCC5)CCC4)sc2C1` (centres unmarked) [Example 752, 6-(Dimethylamino)-N′-((1,2,3,5,6,7-hexahydro-s-indacen-4-yl)carbamoyl)-4,5,6,7-tetrahydrobenzo[b]thiophene-2-sulfonimidamide], for which the IC50 is 1000 to 5000 nM.

Turning to `CC(O)(CO)c1nc(CO)c(S(N)(=O)=NC(=O)Nc2c3c(cc4c2CCC4)CCC3)s1` (centres unmarked) [Example 753, 2-(1,2-Dihydroxypropan-2-yl)-N′-((1,2,3,5,6,7-hexahydro-s-indacen-4-yl)carbamoyl)-4-(hydroxymethyl)thiazole-5-sulfonimidamide], the IC50 fell in the range of 40 to 200 nM. Same read-out and setting: next, `CC(CO)(CO)c1ncc(S(N)(=O)=NC(=O)Nc2c3c(cc4c2CCC4)CCC3)s1` (centres unmarked) [Example 756, 2-(1,3-Dihydroxy-2-methylpropan-2-yl)-N′-((1,2,3,5,6,7-hexahydro-s-indacen-4-yl)carbamoyl)thiazole-5-sulfonimidamide]: 40 to 200 nM.

Still in this assay, the particulars now being: Table B3; hTHP-1 assay containing 2% fetal bovine serum, gramicidin stimulation, IL-1β readout; read-out: hTHP-1 IC50.
Take `CC(NC1CCC1)c1ccc(S(N)(=O)=NC(=O)Nc2c3c(cc4c2CC4)CCC3)c(F)c1` (centres unmarked) [Example 725, 4-(1-(cyclobutylamino)ethyl)-2-fluoro-N′-((2,4,5,6-tetrahydro-1H-cyclobuta[f]inden-3-yl)carbamoyl)benzenesulfonimidamide]: the IC50 was 200 to 1000 nM. On to `CC1=CC(C)=[N+]2C1=Cc1ccc(CCC(=O)N(C)Cc3ccc([S@@](=N)(=O)NC(=O)Nc4c5c(cc6c4CCC6)CCC5)cc3)n1[B-]2(F)F` [Example 745, (S)-3-(5,5-difluoro-7,9-dimethyl-5H-5λ4,6λ4-dipyrrolo[1,2-c:2′,1′-f][1,3,2]diazaborinin-3-yl)-N-(4-(N′-((1,2,3,5,6,7-hexahydro-s-indacen-4-yl)carbamoyl)sulfamidimidoyl)benzyl)-N-methylpropanamide], for which the IC50 is 1000 to 5000 nM. On the same count and under the same terms, next, `C[C@@](O)(CO)c1nc(CO)c(S(N)(=O)=NC(=O)Nc2c3c(cc4c2CCC4)CCC3)s1` (stereo partly drawn) [Example 754, 2-((R)-1,2-dihydroxypropan-2-yl)-N′-((1,2,3,5,6,7-hexahydro-s-indacen-4-yl)carbamoyl)-4-(hydroxymethyl)thiazole-5-sulfommidamide]: 40 to 200 nM.

Usually IC50 stands for the concentration needed to halve the response being measured.

Source of the values: patent publication US20230051589A1, “COMPOUNDS AND COMPOSITIONS FOR TREATING CONDITIONS ASSOCIATED WITH NLRP ACTIVITY” (Novartis AG, priority 2018, published 2023).
